From patent US9586968B2, “Bicycloamine-substituted-N-benzenesulfonamide compounds with selective activity in voltage-gated sodium channels” (Merck Sharp & Dohme Corp., priority 2013, dated 2017)

Key:
human Nav1.7 = molecular target: T1, human Nav1.7 (Homo sapiens, UniProt Q15858); assay: PatchXpress automated patch-clamp, inactivated state block of Nav1.7; format: cell-based; details: channels stably expressed in HEK 293 cells, 22° C., read-out: potency for the Nav 1.7 sodium ion channel (as measured by PatchXpress)
T1 construct: expressed in transfected cells
Summary of the method: (§1)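 Inactivated-state protocol: 8000 ms conditioning 7 mV above V0.5 inact from a holding potential 20 mV below it, then 2 ms at −120 mV and a 20 ms test to −20 mV.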

human Nav1.5 = molecular target: T2, human Nav1.5 (Homo sapiens, UniProt Q14524); assay: PatchXpress automated patch-clamp, inactivated state block of Nav1.5 (selectivity); format: cell-based; details: determined by PatchXpress measurement, HEK 293 cells
T2 construct: expressed in transfected cells
Summary of the method: as §1

T2 sequence (Q14524 whole entry): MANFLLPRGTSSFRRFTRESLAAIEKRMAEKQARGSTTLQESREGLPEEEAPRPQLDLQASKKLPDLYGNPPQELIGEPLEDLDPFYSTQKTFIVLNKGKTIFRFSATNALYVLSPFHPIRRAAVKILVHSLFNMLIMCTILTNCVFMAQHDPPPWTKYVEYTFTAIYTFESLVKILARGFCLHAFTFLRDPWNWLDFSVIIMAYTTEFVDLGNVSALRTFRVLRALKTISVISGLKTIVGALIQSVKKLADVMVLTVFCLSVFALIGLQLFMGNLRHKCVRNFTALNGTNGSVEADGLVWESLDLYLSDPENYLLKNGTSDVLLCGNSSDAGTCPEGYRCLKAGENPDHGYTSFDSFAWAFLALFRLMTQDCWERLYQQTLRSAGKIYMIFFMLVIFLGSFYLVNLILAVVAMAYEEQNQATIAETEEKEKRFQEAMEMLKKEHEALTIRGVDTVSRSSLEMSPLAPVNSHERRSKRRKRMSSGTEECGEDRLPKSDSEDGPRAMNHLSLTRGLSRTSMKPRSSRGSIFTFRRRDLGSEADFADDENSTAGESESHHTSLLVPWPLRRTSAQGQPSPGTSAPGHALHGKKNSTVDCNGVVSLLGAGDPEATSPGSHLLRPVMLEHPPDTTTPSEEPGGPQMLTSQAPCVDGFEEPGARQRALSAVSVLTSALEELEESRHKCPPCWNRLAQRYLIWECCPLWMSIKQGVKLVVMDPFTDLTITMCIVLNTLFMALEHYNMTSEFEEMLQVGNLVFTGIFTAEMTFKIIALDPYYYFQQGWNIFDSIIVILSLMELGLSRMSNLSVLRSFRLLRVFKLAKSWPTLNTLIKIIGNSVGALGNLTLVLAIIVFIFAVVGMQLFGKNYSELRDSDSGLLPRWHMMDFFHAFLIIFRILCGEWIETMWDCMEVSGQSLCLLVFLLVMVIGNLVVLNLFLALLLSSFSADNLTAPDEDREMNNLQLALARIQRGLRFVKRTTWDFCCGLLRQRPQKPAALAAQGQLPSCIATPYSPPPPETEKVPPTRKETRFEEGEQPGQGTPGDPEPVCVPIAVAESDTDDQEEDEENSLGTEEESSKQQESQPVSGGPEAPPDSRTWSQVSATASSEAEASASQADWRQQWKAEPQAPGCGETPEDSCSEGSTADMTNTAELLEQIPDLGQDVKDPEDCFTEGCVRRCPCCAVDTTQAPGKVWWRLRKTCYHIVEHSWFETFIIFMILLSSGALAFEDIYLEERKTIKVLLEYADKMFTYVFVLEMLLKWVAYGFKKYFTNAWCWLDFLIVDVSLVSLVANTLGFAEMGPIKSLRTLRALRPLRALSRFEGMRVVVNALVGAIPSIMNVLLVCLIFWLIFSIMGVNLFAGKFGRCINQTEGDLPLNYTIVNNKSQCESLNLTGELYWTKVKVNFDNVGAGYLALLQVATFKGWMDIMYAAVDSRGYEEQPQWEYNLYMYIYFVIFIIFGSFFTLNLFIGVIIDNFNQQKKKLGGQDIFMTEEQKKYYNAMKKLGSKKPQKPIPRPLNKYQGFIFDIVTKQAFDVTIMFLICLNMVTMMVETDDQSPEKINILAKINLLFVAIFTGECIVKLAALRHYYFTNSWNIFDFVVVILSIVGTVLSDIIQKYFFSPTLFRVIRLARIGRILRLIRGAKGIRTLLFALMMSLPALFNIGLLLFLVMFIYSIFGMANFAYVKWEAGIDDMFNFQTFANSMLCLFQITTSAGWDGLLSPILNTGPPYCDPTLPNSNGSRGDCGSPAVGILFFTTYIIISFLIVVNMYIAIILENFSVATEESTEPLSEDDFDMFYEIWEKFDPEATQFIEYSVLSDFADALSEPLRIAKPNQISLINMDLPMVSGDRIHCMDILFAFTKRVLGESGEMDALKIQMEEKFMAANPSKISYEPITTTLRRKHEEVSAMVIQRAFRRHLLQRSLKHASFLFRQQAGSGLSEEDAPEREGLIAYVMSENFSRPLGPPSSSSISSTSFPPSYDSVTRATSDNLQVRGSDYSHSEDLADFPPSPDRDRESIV
T1 sequence (Q15858 whole entry): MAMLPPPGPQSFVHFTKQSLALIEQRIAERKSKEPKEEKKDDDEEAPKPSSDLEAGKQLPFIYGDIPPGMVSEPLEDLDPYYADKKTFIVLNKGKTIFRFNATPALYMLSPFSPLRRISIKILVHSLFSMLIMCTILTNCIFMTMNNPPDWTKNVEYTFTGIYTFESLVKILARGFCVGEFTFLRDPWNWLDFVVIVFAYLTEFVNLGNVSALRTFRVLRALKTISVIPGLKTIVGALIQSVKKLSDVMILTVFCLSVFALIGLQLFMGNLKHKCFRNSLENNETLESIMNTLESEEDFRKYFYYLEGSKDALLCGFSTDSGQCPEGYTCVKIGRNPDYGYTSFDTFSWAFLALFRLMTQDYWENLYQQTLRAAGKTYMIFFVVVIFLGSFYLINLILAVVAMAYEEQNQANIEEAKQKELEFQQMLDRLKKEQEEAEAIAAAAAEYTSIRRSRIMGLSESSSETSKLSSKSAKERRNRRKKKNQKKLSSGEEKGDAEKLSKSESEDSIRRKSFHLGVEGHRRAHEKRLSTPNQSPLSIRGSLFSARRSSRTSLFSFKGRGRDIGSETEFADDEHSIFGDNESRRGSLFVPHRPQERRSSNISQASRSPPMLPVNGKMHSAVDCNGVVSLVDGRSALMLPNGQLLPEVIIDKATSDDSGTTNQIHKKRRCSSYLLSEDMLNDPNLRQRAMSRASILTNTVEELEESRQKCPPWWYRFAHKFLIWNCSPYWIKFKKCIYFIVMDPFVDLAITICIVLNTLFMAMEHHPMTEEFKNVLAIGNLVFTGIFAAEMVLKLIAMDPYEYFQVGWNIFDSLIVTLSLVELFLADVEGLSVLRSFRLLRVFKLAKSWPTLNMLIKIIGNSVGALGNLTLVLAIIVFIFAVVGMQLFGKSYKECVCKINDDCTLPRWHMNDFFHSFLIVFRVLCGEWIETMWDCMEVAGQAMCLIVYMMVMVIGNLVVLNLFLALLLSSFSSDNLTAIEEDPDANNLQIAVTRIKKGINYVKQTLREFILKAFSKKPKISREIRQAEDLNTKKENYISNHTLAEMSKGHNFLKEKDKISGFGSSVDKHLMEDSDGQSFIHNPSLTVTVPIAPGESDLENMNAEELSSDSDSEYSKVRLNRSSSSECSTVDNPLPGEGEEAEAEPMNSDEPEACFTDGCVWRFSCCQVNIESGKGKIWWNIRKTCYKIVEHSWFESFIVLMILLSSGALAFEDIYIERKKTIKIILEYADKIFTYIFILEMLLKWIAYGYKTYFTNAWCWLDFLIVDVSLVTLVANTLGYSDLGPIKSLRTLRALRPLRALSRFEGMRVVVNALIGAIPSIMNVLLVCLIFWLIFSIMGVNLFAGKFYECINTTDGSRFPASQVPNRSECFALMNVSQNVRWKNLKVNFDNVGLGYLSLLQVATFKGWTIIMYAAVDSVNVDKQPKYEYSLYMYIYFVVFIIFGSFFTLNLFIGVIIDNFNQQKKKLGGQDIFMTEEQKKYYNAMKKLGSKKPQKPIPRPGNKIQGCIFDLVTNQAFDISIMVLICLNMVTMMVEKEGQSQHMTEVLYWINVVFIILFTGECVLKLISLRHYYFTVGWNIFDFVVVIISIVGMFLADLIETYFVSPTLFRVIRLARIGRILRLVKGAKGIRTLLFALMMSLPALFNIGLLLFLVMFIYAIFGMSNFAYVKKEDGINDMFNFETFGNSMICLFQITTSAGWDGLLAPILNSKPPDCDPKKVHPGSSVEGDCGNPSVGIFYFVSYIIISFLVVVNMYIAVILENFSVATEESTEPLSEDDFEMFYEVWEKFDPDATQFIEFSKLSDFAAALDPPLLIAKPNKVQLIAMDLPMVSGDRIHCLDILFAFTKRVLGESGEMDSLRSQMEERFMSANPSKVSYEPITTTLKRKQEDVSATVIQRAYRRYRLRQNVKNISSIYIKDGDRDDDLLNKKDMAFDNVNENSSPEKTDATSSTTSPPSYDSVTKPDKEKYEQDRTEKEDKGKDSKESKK

| Structure (SMILES) | IC50 (human Nav1.7) [nM] | ratio of Nav1.7 potency:Nav 1.5 potency (human Nav1.5) |
| --- | --- | --- |
| N#Cc1cc(NCC23CCCN2CCC3)c(Cl)cc1S(=O)(=O)Nc1nccs1 [Ex12-6, 5-chloro-2-cyano-4-(((hexahydro-1H-pyrrolizin-7a-yl)methyl)amino)-N-(thiazol-2-yl)benzenesulfonamide] | 95 | 180 |
| CCc1cc(S(=O)(=O)Nc2nccs2)c(F)cc1NCC12CCCN1CCC2 [Ex18-7, 5-ethyl-2-fluoro-4-(((hexahydro-1H-pyrrolizin-7a-yl)-methyl)amino)-N-(thiazol-2-yl)-benzenesulfonamide] | 19 | 672 |
| CCc1cc(S(=O)(=O)Nc2ncc(F)s2)c(F)cc1NCC12CCCN1CCC2 [Ex18-8, 5-ethyl-2-fluoro-N-(5-fluorothiazol-2-yl)-4-(((hexahydro-1H-pyrrolizin-7a-yl)-methyl)amino)-benzenesulfonamide] | 5 | 2595 |

Second part, led by results:

| IC50 (human Nav1.7) [nM] | Structure (SMILES) | ratio of Nav1.7 potency:Nav 1.5 potency (human Nav1.5) |
| --- | --- | --- |
| 10 | CC1CN2CCCC2(CNc2cc(F)c(S(=O)(=O)Nc3ncc(Cl)s3)cc2Cl)C1 [Ex4-10, 5-chloro-N-(5-chlorothiazol-2-yl)-2-fluoro-4-((((2S,7aR and 2R,7aS)-2-methylhexahydro-1H-pyrrolizin-7a-yl)methyl)-amino)benzene-sulfonamide] | 2681 |
| 5 | CC1CN2CCCC2(CNc2ccc(S(=O)(=O)Nc3nccs3)cc2Cl)C1 [Ex4-11, 3-chloro-4-((((2S/7aR and 2R,7aS)-2-methylhexahydro-1H-pyrrolizin-7a-yl)methyl)amino)-N-(thiazol-2-yl)benzenesulfonamide] | 7180 |
| 41 | O=S(=O)(Nc1nccs1)c1cc(Cl)c(NCC23CCCN2CCC3)cc1Br [Ex12-5, 2-bromo-5-chloro-4-(((hexahydro-1H-pyrrolizin-7a-yl)methyl)amino)-N-(thiazol-2-yl)benzenesulfonamide] | 288 |
| 26 | Cc1cc(NCC23CCCN2CCC3)c(Cl)cc1S(=O)(=O)Nc1nccs1 [Ex12-7, 5-chloro-4-(((hexahydro-1H-pyrrolizin-7a-yl)methyl)amino)-2-methyl-N-(thiazol-2-yl)benzenesulfonamide] | 163 |
